# Patent EP4806900A2, “RAS INHIBITORS” (Revolution Medicines, Inc., priority 2019, dated 2021)
# Test system: NCI-H358 (K-Ras G12C)
# Assay: CellTiter-Glo cell viability assay, NCI-H358
# Format: cell-based, human
# Settings: Homo sapiens, NCI-H358, Table 5; read-out: H358 Cell Viability assay data (K-Ras G12C, IC50)
# Protocol: Note - The following protocol describes a procedure for monitoring cell viability of K-Ras mutant cancer cell lines in response to a compound of the invention. Other RAS isoforms may be employed, though the number of cells to be seeded will vary based on cell line used.
# Test compounds (132.5 nL) were directly dispensed into the assay plates containing cells. […] On day 5, assay plates and their contents were equilibrated to room temperature for approximately 30 minutes. […] Luminescence was measured using the PerkinElmer Enspire. Data were normalized by the following: (Sample signal/Avg. DMSO)*100. The data were fit using a four-parameter logistic fit.
row,IC50 [µM],SMILES
1,< 0.01,"CO[C@@H](C)c1ncccc1-c1c2c3cc(ccc3n1CC(F)(F)F)-c1cc(cc(C(F)F)c1)C[C@H](NC(=O)[C@H](C(C)C)N(C)C(=O)[C@H]1CCN(C(=O)C#CC(C)(C)N3CCC3)C1)C(=O)N1CCC[C@H](N1)C(=O)OCC(C)(C)C2 (atropisomer, axis not shown) [Compound A370]"
2,< 0.01,"CCn1c(-c2cccnc2[C@H](C)OC)c2c3cc(ccc31)-c1cccc(c1)C[C@H](NC(=O)[C@H](C1CCCC1)N(C)C(=O)[C@@H]1CN(C(=O)C#CC(C)(C)N(C)C)C[C@@H]1C)C(=O)N1CCC[C@H](N1)C(=O)OCC(C)(C)C2 (atropisomer, axis not shown) [Compound A391]"
3,< 0.01,"CCn1c(-c2cccnc2[C@H](C)OC)c2c3cc(ccc31)-c1cc(cc(C(F)F)c1)C[C@H](NC(=O)[C@H](C(C)C)N(C)C(=O)[C@H]1CCN(C(=O)C#CC(C)(C)N3CCC3)C1)C(=O)N1CCC[C@H](N1)C(=O)OCC(C)(C)C2 (atropisomer, axis not shown) [Compound A466]"
4,0.1 to 1,"C=CC(=O)N1CC[C@H](C(=O)N(C)[C@H](C(=O)N[C@H]2CC3=CCCN(C3)c3ccc4c(c3)c(c(-c3cccnc3[C@H](C)OC)n4CC)CC(C)(C)COC(=O)[C@@H]3CCCN(N3)C2=O)C(C)C)C1 (atropisomer, axis not shown) [Compound A486]"
5,< 0.01,"C=CC(=O)N1CC[C@@H](C(=O)N(C)[C@H](C(=O)N[C@H]2Cc3cccc(c3)-c3ccc4c(c3)c(c(-c3cccnc3[C@H](C)OC)n4CC)CC(C)(C)COC(=O)[C@@H]3CCCN(N3)C2=O)C(C)C)C1 (atropisomer, axis not shown) [Compound A488]"
6,< 0.01,"CO[C@@H](C)c1ncccc1-c1c2c3cc(ccc3n1CC(F)(F)F)-c1csc(n1)C[C@H](NC(=O)[C@H](C(C)C)N(C)C(=O)N1C[C@@H]3OCCN(C(=O)/C=C/CF)[C@@H]3C1)C(=O)N1CCC[C@H](N1)C(=O)OCC(C)(C)C2 (atropisomer, axis not shown) [Compound A571]"
7,< 0.01,"CO[C@@H](C)c1ncccc1-c1c2c3cc(ccc3n1CC(F)(F)F)-c1csc(n1)C[C@H](NC(=O)[C@H](C(C)C)N(C)C(=O)N1C[C@@H]3OCCN(C(=O)/C=C/C(F)F)[C@@H]3C1)C(=O)N1CCC[C@H](N1)C(=O)OCC(C)(C)C2 (atropisomer, axis not shown) [Compound A572]"
8,0.01 to 0.1,"CO[C@@H](C)c1ncccc1-c1c2c3cc(ccc3n1CC(F)(F)F)-c1csc(n1)C[C@H](NC(=O)[C@H](C(C)C)N(C)C(=O)N1C[C@@H]3OCCN(C(=O)/C=C/CN(C)C)[C@@H]3C1)C(=O)N1CCC[C@H](N1)C(=O)OCC(C)(C)C2 (atropisomer, axis not shown) [Compound A573]"
9,< 0.01,"CO[C@@H](C)c1ncccc1-c1c2c3cc(ccc3n1CC(F)(F)F)-c1nc(nn1C)C[C@H](NC(=O)[C@H](C(C)C)N(C)C(=O)C1(F)CCN(C(=O)C#CC(C)(C)N(C)C)CC1)C(=O)N1CCC[C@H](N1)C(=O)OCC(C)(C)C2 (atropisomer, axis not shown) [Compound A577]"
10,0.01 to 0.1,"CCn1c(-c2cccnc2[C@H](C)OC)c2c3cc(ccc31)N1CCO[C@@H](C[C@H](NC(=O)[C@H](C(C)C)N3CC[C@@]4(CCN(C(=O)C#CC(C)(C)N(C)C)C4)C3=O)C(=O)N3CCC[C@H](N3)C(=O)OCC(C)(C)C2)C1 (atropisomer, axis not shown) [Compound A614]"
11,< 0.01,"CCn1c(-c2cccnc2[C@H](C)OC)c2c3cc(ccc31)-c1cccc(c1)C[C@H](NC(=O)[C@H](C(C)C)N(C)C(=O)C1(F)CCN(C(=O)C#CC(C)(C)N(C)C)CC1)C(=O)N1CCC[C@H](N1)C(=O)OCC(C)(C)C2 (atropisomer, axis not shown) [Compound A699]"

row,SMILES,IC50 [µM]
1,"C=CC(=O)N1CC(CN2C(=O)O[C@H](C)[C@H]2C(=O)N[C@H]2Cc3cccc(c3)-c3ccc4c(c3)c(c(-c3cccnc3[C@H](C)OC)n4CC)CC(C)(C)COC(=O)[C@@H]3CCCN(N3)C2=O)C1 (atropisomer, axis not shown) [Compound A460]",> 1

# Same assay, conditions: Homo sapiens, NCI-H358, read-out: H358 Cell Viability assay data (K-Ras G12C, IC50, uM), Table 5
row,SMILES,IC50 [µM]
1,"CCn1c(-c2cccnc2[C@H](C)OC)c2c3cc(ccc31)-c1cccc(c1)C[C@H](NC(=O)[C@H](C(C)C)N(C)C(=O)[C@H]1CCN(C(=O)C#CCN(C)C)C1)C(=O)N1CCC[C@H](N1)C(=O)OCC(C)(C)C2 (atropisomer, axis not shown) [Compound A121]",< 0.01
2,"C=CS(=O)(=O)N1CC[C@H](C(=O)N(C)[C@H](C(=O)N[C@H]2Cc3cccc(c3)-c3ccc4c(c3)c(c(-c3cccnc3[C@H](C)OC)n4CC)CC(C)(C)COC(=O)[C@@H]3CCCN(N3)C2=O)C(C)C)C1 (atropisomer, axis not shown) [Compound A124]",< 0.01
3,"C=CC(=O)N1CC[C@H](C(=O)N(C)[C@H](C(=O)N[C@H]2Cc3cc(O)cc(c3)-c3ccc4c(c3)c(c(-c3cccnc3[C@H](CC)OC)n4CC)CC(C)(C)COC(=O)[C@@H]3CCCN(N3)C2=O)C(C)C)C1 (atropisomer, axis not shown) [Compound A181]",< 0.01
4,"C=CC(=O)Nc1cnc(C(=O)N(C)[C@H](C(=O)N[C@H]2Cc3cccc(c3)-c3ccc4c(c3)c(c(-c3cccnc3[C@H](C)OC)n4CC)CC(C)(C)COC(=O)[C@@H]3CCCN(N3)C2=O)C(C)C)n1C (atropisomer, axis not shown) [Compound A525]",< 0.01
5,"CCn1c(-c2cccnc2[C@H](C)OC)c2c3cc(ccc31)-c1cccc(c1)C[C@H](NC(=O)[C@H](C(C)C)N1CC[C@]3(CCN(C(=O)C#C[C@H]4COCCN4C)C3)C1=O)C(=O)N1CCC[C@H](N1)C(=O)OCC(C)(C)C2 (atropisomer, axis not shown) [Compound A592]",< 0.01
6,"C=CC(=O)N1CCO[C@H]2CCN(C(=O)N(C)[C@H](C(=O)N[C@H]3Cc4nc(cs4)-c4ccc5c(c4)c(c(-c4cccnc4[C@H](C)OC)n5CC)CC(C)(C)COC(=O)[C@@H]4CCCN(N4)C3=O)C(C)C)C[C@@H]21 (atropisomer, axis not shown) [Compound A609]",< 0.01
7,CCn1c(-c2cccnc2[C@H](C)OC)c2c3cc(ccc31)-c1cccc(c1)C[C@H](NC(=O)[C@H](C(C)C)N(C)C(=O)[C@H]1CCN(C(=O)C#CC(C)(C)N3CCC(F)(F)C3)C1)C(=O)N1CCC[C@H](N1)C(=O)OCC(C)(C)C2 (relative stereo) [Compound A325],0.1 to 1
8,"C=CC(=O)N1CC[C@H](C(=O)N(C)[C@H](C(=O)N[C@H]2Cc3cc(O)cc(c3)-c3ccc4c(c3)c(c(-c3cc(CN(C)C)cnc3[C@H](C)OC)n4CC)CC(C)(C)COC(=O)[C@@H]3CCCN(N3)C2=O)C(C)C)C1 (single isomer, unassigned) [Compound A537]",< 0.01
9,C=CC(=O)N1CC[C@H](C(=O)N(C)[C@H](C(=O)N[C@H]2Cc3cc(O)cc(c3)-c3ccc4c(c3)c(c(-c3cccnc3)n4[C@H](C)C#N)CC(C)(C)COC(=O)[C@@H]3CCCN(N3)C2=O)C(C)C)C1 [A193],0.1 to 1

# Same assay, conditions: Table 5; read-out: H358 Cell Viability assay data (K-Ras G12C, IC50)
row,IC50 [µM],SMILES
1,0.1 to 1,"C=CC(=O)N1CC2(CCN2C(=O)N(C)[C@H](C(=O)N[C@H]2Cc3nc(n(C)n3)-c3ccc4c(c3)c(c(-c3cccnc3[C@H](C)OC)n4CC)CC(C)(C)COC(=O)[C@@H]3CCCN(N3)C2=O)C(C)C)C1 (atropisomer, axis not shown) [Compound A612]"
2,< 0.01,"CCn1c(-c2cccnc2[C@H](C)OC)c2c3cc(ccc31)-c1csc(n1)C[C@H](NC(=O)[C@H](C(C)C)N(C)C(=O)N1C[C@H]3CN(C(=O)C#CC(C)(C)N(C)C)CC[C@H]31)C(=O)N1CCC[C@H](N1)C(=O)OCC(C)(C)C2 (atropisomer, axis not shown) [Compound A624]"
3,0.01 to 0.1,"CCn1c(-c2cccnc2[C@H](C)OC)c2c3cc(ccc31)-c1csc(n1)C[C@H](NC(=O)[C@H](C(C)C)N(C)C(=O)N1C[C@@H]3CN(C(=O)C#CC(C)(C)N(C)C)CC[C@@H]31)C(=O)N1CCC[C@H](N1)C(=O)OCC(C)(C)C2 (atropisomer, axis not shown) [Compound A625]"
4,0.01 to 0.1,"CCn1c(-c2cccnc2[C@H](C)OC)c2c3cc(ccc31)-c1csc(n1)C[C@H](NC(=O)[C@H](C(C)C)N(C)C(=O)N1CCCOC13CN(C(=O)C#CC(C)(C)N(C)C)C3)C(=O)N1CCC[C@H](N1)C(=O)OCC(C)(C)C2 (atropisomer, axis not shown) [Compound A666]"
5,< 0.01,"C=CC(=O)N1CC2(CCN2C(=O)N(C)[C@H](C(=O)N[C@H]2Cc3cccc(c3)-c3ccc4c(c3)c(c(-c3cccnc3[C@H](C)OC)n4CC)CC(C)(C)COC(=O)[C@@H]3CCCN(N3)C2=O)C(C)C)C1 (atropisomer, axis not shown) [Compound A684]"

# Same assay, conditions: read-out: H358 Cell Viability assay data (K-Ras G12C, IC50); Table 5
row,SMILES,IC50 [µM]
1,"C=CC(=O)N1CC[C@H](C(=O)N(C)[C@H](C(=O)N[C@H]2Cc3cccc(c3)-c3ccc4c(c3)c(c(-c3cc(C5CCN(C)CC5)cnc3[C@H](C)OC)n4CC)CC(C)(C)COC(=O)[C@@H]3CCCN(N3)C2=O)C(C)C)C1 (atropisomer, axis not shown) [Compound A515]",< 0.01
2,"C=CC(=O)N1CC[C@H](C(=O)N(C)[C@H](C(=O)N[C@H]2Cc3nc(cs3)-c3ccc4c(c3)c(c(-c3cc(C5=CCN(C)CC5)cnc3[C@H](C)OC)n4CC)CC(C)(C)COC(=O)[C@@H]3CCCN(N3)C2=O)C(C)C)C1 (atropisomer, axis not shown) [Compound A520]",< 0.01
